Data as given in US20190231748A1, “COMPOSITION FOR VAGINA AND ANTIMICROBIAL AGENT COMBINATION FOR USE IN PREPARING COMPOSITION FOR VAGINA” (Shenzhen Eulikan Biotechnology Co., Ltd., priority 2016, published 2019).

Assays:
Type in all cases: cell-based
[1] = tested on: three strains of Escherichia coli isolated from the vaginal secretion of patients with vaginitis; test: Growth in enrichment broth (turbidity after 24 hours), clinical strains; set-up: key to growth of Escherichia coli, Bacterial strain 1 / growth of Escherichia coli, Bacterial strain 2 / growth of Escherichia coli, Bacterial strain 3: +: means the growth of bacteria; −: means no growth of bacteria; conditions: for growth of Escherichia coli, Bacterial strain 1 / growth of Escherichia coli, Bacterial strain 2 / growth of Escherichia coli, Bacterial strain 3: enrichment broth, 37° C. for 24 hours, turbidity
Excerpt: (§1) a. Experimental strains, three strains of Escherichia coli and three strains of Staphylococcus aureus, which were all isolated from the vaginal secretion of patients with vaginitis.
(§2) b. Enrichment broth, which contained 1 percent of yeast extract powder, 9 percent of sucrose, 0.025 percent of manganese sulfate (MnSO4.4H2O), 0.058 percent of magnesium sulfate (MgSO4.7H2O), and 0.9 percent of lactic acid, the pH value of the broth was adjusted to 4.8, and the enrichment broth was sterilized for later use;
(§3) (2). Experimental groups: the requirements for aseptic operation technique were strictly followed to prepare the sterile test tubes:
(§4) a. sodium benzoate group: each test tube contained 5 milliliters of enrichment broth, and was added in 0.05 percent (weight/volume) sodium benzoate;
(§5) b. 2-phenylethanol group: each test tube contained 5 milliliters of enrichment broth, and was added in 0.05 percent (weight/volume) of 2-phenylethanol;
(§6) c. sodium propionate group: each test tube contained 5 milliliters of enrichment broth, and was added in 0.25 percent (weight/volume) of sodium propionate;
(§7) d. “a group of the combinations of sodium benzoate and sodium propionate”: each test tube contained 5 milliliters of enrichment broth, and was added in 0.05 percent (weight/volume) of sodium benzoate and 0.25 percent (weight/volume) of sodium propionate;
(§8) e. “a group of the combinations of sodium benzoate and 2-phenylethanol”: each test tube contained 5 milliliters of enrichment broth, and was added in 0.05 percent (weight/volume) of sodium benzoate and 0.05 percent (weight/volume) of 2-phenylethanol;
(§9) f. “a group of the combinations of sodium propionate and 2-phenylethanol”: each test tube contained 5 milliliters of enrichment broth, and was added in 0.25 percent (weight/volume) of sodium propionate and 0.05 percent (weight/volume) of 2-phenylethanol;
(§10) g. “a group of the combinations of sodium benzoate, sodium propionate and 2-phenylethanol”: each test tube contained 5 milliliters of enrichment broth, and was added in 0.05 percent (weight/volume) of sodium benzoate, 0.25 percent (weight/volume) of sodium propionate, and 0.05 percent (weight/volume) of 2-phenylethanol;
(§11) h. positive control: one tube that contained 5 milliliters of enrichment broth without adding in any of the 2-phenylethanol, sodium benzoate, and sodium propionate, but inoculated the suspension of Escherichia coli or Staphylococcus aureus.
(§12) i. negative control: one tube that contained 5 milliliters of enrichment broth without adding in any of the 2-phenylethanol, sodium benzoate, and sodium propionate, and not inoculated the suspension of Escherichia coli or Staphylococcus aureus.
(§13) The requirements for aseptic operation technique were strictly followed to prepare the bacterial suspensions. The colonies of Escherichia coli and Staphylococcus aureus were diluted with physiological saline respectively to prepare bacterial suspension. The turbidities of the Escherichia coli suspension and the Staphylococcus aureus suspension were adjusted to 0.5 MCF (about 10^8 CFU/ml) by a turbidimeter. 1 milliliter of the 0.5 MCF bacterial suspensions were added into 9 milliliters of the enrichment broth respectively, so each bacterial solution was diluted for ten times to contain 10^7 CFU/ml of bacterial organisms.
(§14) The requirements for aseptic operation technique were strictly followed to take 100 microliters of the prepared bacterial suspensions respectively, and to add the bacterial suspensions into the aforesaid test tubes from a to h as well as positive control tube. No bacterial suspension was added into the negative control tube i.
(§15) The above tubes were cultured in a biochemical incubator at 37° C. for 24 hours, then turbidity changes of the test tube solutions were observed and recorded.
(§16) Remark: “+” means the growth of bacteria; “−” means no growth of bacteria.

Lactobacillus jensenii = test: Gram-stained smear of co-culture gel, Gram-positive rods (G+b); conditions: for Smear G^+b: cultivated 32 hours
Excerpt: (§17) 2.1 Experimental strains: one Lactococcus lactis strain and one Lactobacillus jensenii strain, both were clinical isolates.
(§18) The pH value was adjusted to 5.0.
(§19) 2.4 Experimental procedure: the test gel tubes containing different concentrations of antimicrobial agents, as shown in Tables 1 to 6 were inoculated with 100 microliters of Lactobacillus lactis suspension and 100 microliters of Lactobacillus jensenii suspension at the same time. The turbidities of both suspensions were 0.5 MCF. Then the tubes were cultivated at 37° C. and under 5 percent CO2 for 32 hours. Then the changes of the pH values of gels were tested. The gels were smeared, Gram stained, and microscopically examined for the morphology and quantity of bacteria.

[2] = tested on: nine strains of Candida albicans; test: Growth of Candida in enrichment broth after 24 hours, clinical strains; conditions: agent alone, 0.025 percent (weight/volume), broth pH 4.5, 37° C. 24 hours
Excerpt: as §2, with “broth:” for “broth,”, “4.5,” for “4.8,”
(2) Experimental groups: the requirements of aseptic operation technique were strictly followed so to prepare the sterile test tubes;
a. sodium benzoate group: each test tube contained 5 milliliters enrichment broth, and was added in 0.025 percent (weight/volume) of sodium benzoate;
b. 2-phenylethanol group: each test tube contained 5 milliliters enrichment broth, and was added in 0.050 percent (weight/volume) of 2-phenylethanol;
c. sodium propionate group: each test tube contained 5 milliliters enrichment broth, and was added in 0.125 percent (weight/volume) of sodium propionate;
d. “a group of the combinations of sodium benzoate and sodium propionate”: each test tube contained 5 milliliters enrichment broth, and was added in 0.025 percent (weight/volume) of sodium benzoate and 0.125 percent (weight/volume) of sodium propionate;
e. “a group of the combinations of sodium benzoate and 2-phenylethanol”: each test tube contained 5 milliliters enrichment broth, and was added in 0.025 percent (weight/volume) of sodium benzoate and 0.050 percent (weight/volume) of 2-phenylethanol;
f. “a group of the combinations of sodium propionate and 2-phenylethanol”: each test tube contained 5 milliliters enrichment broth, and was added in 0.125 percent (weight/volume) of sodium propionate and 0.050 percent (weight/volume) of 2-phenylethanol;
g. “a group of the combinations of sodium benzoate, sodium propionate and 2-phenylethanol”: each test tube contained 5 milliliters enrichment broth, and was added in 0.025 percent (weight/volume) of sodium benzoate, 0.125 percent (weight/volume) of sodium propionate and 0.050 percent (weight/volume) of 2-phenylethanol;
h. positive control: the control tube of enrichment broth without adding in 2-phenylethanol, sodium benzoate, and sodium propionate; but inoculated the suspension of Candida albicans;
i. negative control: the control tube of enrichment broth without adding in 2-phenylethanol, sodium benzoate, and sodium propionate; and without inoculating Candida albicans;
The requirements for aseptic operation technique were strictly followed to prepare the suspension of organism. The colonies of each strain of Candida albicans organism were diluted with physiological saline respectively. The turbidities of the suspensions of Candida albicans organism were adjusted to 0.5 MCF (about 10^8 CFU/ml) by a turbidimeter. 1 milliliter of the 0.5 MCF organism suspension was added into 9 milliliters of enrichment broth. Each suspension was diluted for ten times to contain 10^7 CFU/ml of organisms.
the requirements for aseptic technique were strictly followed to take 100 microliters of the prepared organism suspension respectively and to add the suspension into the test tubes from a to h as well as the positive control tube. No organism suspension was added into the negative control tube i.
The above tubes were cultured in a biochemical incubator at 37° C. for 24 hours. Then the growth of Candida in each tube was observed and recorded.
Remark: “+” means the growth of organisms; “−” means no growth of organisms.

[3] = tested on: three strains of Staphylococcus aureus isolated from the vaginal secretion of patients with vaginitis; test: Growth in enrichment broth (turbidity after 24 hours), clinical strains; set-up: key to growth of Staphylococcus aureus, Bacterial strain 1 / growth of Staphylococcus aureus, Bacterial strain 2 / growth of Staphylococcus aureus, Bacterial strain 3: +: means the growth of bacteria; −: means no growth of bacteria; conditions: for growth of Staphylococcus aureus, Bacterial strain 1 / growth of Staphylococcus aureus, Bacterial strain 2 / growth of Staphylococcus aureus, Bacterial strain 3: enrichment broth, 37° C. for 24 hours, turbidity
Excerpt: as §1, §2, §3, §4, §5, §6, §7, §8, §9, §10, §11, §12, §13, §14, §15, §16

[4] = tested on: Lactococcus lactis and Lactobacillus jensenii; test: pH of test gel after co-culture of Lactococcus lactis and Lactobacillus jensenii; conditions: cultivated 32 hours
Excerpt: as §17, §18, §19

Lactococcus lactis = test: Gram-stained smear of co-culture gel, Gram-positive cocci (G+c); conditions: for Smear G^+c: cultivated 32 hours
Excerpt: as §17, §18, §19

[5] = 0.05 percent (weight/volume) in enrichment broth pH 4.8, 37° C. 24 hours

SMILES: O=C([O-])c1ccccc1.[Na+] [sodium benzoate]
- could inhibit the growth of Escherichia coli (agent alone, words) [1, 5]: no one of the three antimicrobial agents
- Smear G^+b (Lactobacillus jensenii; 0.035 % in test gel): G^+b+
- Smear G^+b (Lactobacillus jensenii; 0.05 % in test gel): G^+b+
- Smear G^+b (Lactobacillus jensenii; 0.065 % in test gel): G^+b++
- inhibition effect on the growth of Lactobacillus (Lactobacillus jensenii; 0.065 to 0.1 percent): weaker inhibition effect
- Smear G^+b (Lactobacillus jensenii; 0.1 % in test gel): G^+b+++
- number of the nine Candida albicans strains that grew [2]: nine
- could inhibit the growth of Staphylococcus aureus (agent alone, words) [3, 5]: no one of the three antimicrobial agents
- pH value ([4]; 0.035 % in test gel): <3.8
- pH value ([4]; 0.05 % in test gel): <3.8
- pH value ([4]; 0.065 % in test gel): 4.1
- pH value ([4]; 0.1 % in test gel): 4.6
- Smear G^+c (Lactococcus lactis; 0.035 % in test gel): G^+c++++
- Smear G^+c (Lactococcus lactis; 0.05 % in test gel): G^+c++++
- Smear G^+c (Lactococcus lactis; 0.065 % in test gel): G^+c++
- inhibition effect on the growth of Lactococcus lactis (Lactococcus lactis; 0.065 to 0.1 percent): stronger inhibition effect
- Smear G^+c (Lactococcus lactis; 0.1 % in test gel): G^+c+

SMILES: CCC(=O)[O-].[Na+] [c. 0.25% sodium propionate]
- growth of Escherichia coli, Bacterial strain 1 [1]: +
- growth of Escherichia coli, Bacterial strain 2 [1]: +
- growth of Escherichia coli, Bacterial strain 3 [1]: +
- growth of Staphylococcus aureus, Bacterial strain 1 [3]: +
- growth of Staphylococcus aureus, Bacterial strain 2 [3]: +
- growth of Staphylococcus aureus, Bacterial strain 3 [3]: +

SMILES: O=C([O-])c1ccccc1.[Na+] [a. 0.05% sodium benzoate]
- growth of Escherichia coli, Bacterial strain 1 [1]: +
- growth of Escherichia coli, Bacterial strain 2 [1]: +
- growth of Escherichia coli, Bacterial strain 3 [1]: +
- growth of Staphylococcus aureus, Bacterial strain 1 [3]: +
- growth of Staphylococcus aureus, Bacterial strain 2 [3]: +
- growth of Staphylococcus aureus, Bacterial strain 3 [3]: +
